Common to all, as to assay type: in vivo
Test [1] concerns Avena fatua (AVEFA). Put plainly: Post-emergence herbicidal activity, glasshouse. As to conditions: post-emergence spray after 8 days cultivation; rate 250 g/ha; evaluated after 13 days; 100=total damage to plant, 0=no damage to plant. The protocol:
(§1) Seeds of a variety of test species are sown in standard soil in pots. After cultivation for one day (pre-emergence) or after 8 days cultivation (post-emergence) under controlled conditions in a glasshouse (at 24/16° C., day/night; 14 hours light; 65% humidity), the plants are sprayed with an aqueous spray solution derived from the formulation of the technical active ingredient in acetone/water (50:50) solution containing 0.5% Tween 20 (polyoxyethelyene sorbitan monolaurate, CAS RN 9005-64-5). The test plants are then grown in a glasshouse under controlled conditions in a glasshouse (at 24/16° C., day/night; 14 hours light; 65% humidity) and watered twice daily. After 13 days for pre and post-emergence, the test is evaluated (100=total damage to plant; 0=no damage to plant). Test plants: • Lolium perenne (LOLPE), Alopecurus myosuroides (ALOMY), Echinochloa crus-galli (ECHCG), Avena fatua (AVEFA)

Test [2] has as its system Alopecurus myosuroides (ALOMY). As to the kind of experiment: Post-emergence herbicidal activity, glasshouse. Particulars: post-emergence spray after 8 days cultivation; rate 250 g/ha; evaluated after 13 days; 100=total damage to plant, 0=no damage to plant. As to the method:
as §1

The test system of test [3] is Echinochloa crus-galli (ECHCG). As to the kind of experiment: Post-emergence herbicidal activity, glasshouse. As to conditions: post-emergence spray after 8 days cultivation; rate 250 g/ha; evaluated after 13 days; 100=total damage to plant, 0=no damage to plant. The protocol:
as §1

Test [4] relates to Lolium perenne (LOLPE). Put plainly: Post-emergence herbicidal activity, glasshouse. As to conditions: post-emergence spray after 8 days cultivation; rate 250 g/ha; evaluated after 13 days; 100=total damage to plant, 0=no damage to plant. The protocol:
as §1

Test [5] concerns Avena fatua (AVEFA). Put plainly: Pre-emergence herbicidal activity, glasshouse. As to conditions: pre-emergence spray after one day cultivation; rate 250 g/ha; evaluated after 13 days; 100=total damage to plant, 0=no damage to plant. The protocol: as §1
The subject of test [6] is Alopecurus myosuroides (ALOMY). As to the kind of experiment: Pre-emergence herbicidal activity, glasshouse. As to conditions: pre-emergence spray after one day cultivation; rate 250 g/ha; evaluated after 13 days; 100=total damage to plant, 0=no damage to plant. The protocol: as §1
In test [7] the test system is Echinochloa crus-galli (ECHCG). Put plainly: Pre-emergence herbicidal activity, glasshouse. As to conditions: pre-emergence spray after one day cultivation; rate 250 g/ha; evaluated after 13 days; 100=total damage to plant, 0=no damage to plant. The protocol:
as §1

The subject of test [8] is Lolium perenne (LOLPE). As to the kind of experiment: Pre-emergence herbicidal activity, glasshouse. Particulars: pre-emergence spray after one day cultivation; rate 250 g/ha; evaluated after 13 days; 100=total damage to plant, 0=no damage to plant. As to the method: as §1

In the case of `Cc1cc(C)c(C2C(=O)CC(Cc3cc(C)on3)C2=O)c(C)c1` (centres unmarked) [Compound T3, 4-(5-methyl-isoxazol-3-ylmethyl)-2-(2,4,6-trimethyl-phenyl)-cyclopentane-1,3-dione], the “Post-Emergence Activity AVEFA” value in the test on Avena fatua (AVEFA) [1] came out at 80. Also, in test [2], the “Post-Emergence Activity ALOMY” value turned out to be 90. Also, the “Post-Emergence Activity ECHCG” value in test [3] worked out at 80. Further, the “Post-Emergence Activity LOLPE” value in the test on Lolium perenne (LOLPE) [4] was determined as 90. Further, the “Pre-Emergence Activity AVEFA” value in the test on Avena fatua (AVEFA) [5] worked out at 70. The “Pre-Emergence Activity ALOMY” value in test [6] turned out to be 100. For the same compound, the “Pre-Emergence Activity ECHCG” value in test [7] was 80. Moreover, in the test with Lolium perenne (LOLPE) [8], the “Pre-Emergence Activity LOLPE” value worked out at 100.

For the compound `Cc1cc(C)c(C2=C(OC(=O)C(C)(C)C)C/C(=C\c3ccoc3)C2=O)c(C)c1` [Compound P2, 2,2-Dimethyl-propionic acid 4-[1-furan-3-yl-meth-(E)-ylidene]-3-oxo-2-(2,4,6-trimethyl-phenyl)-cyclopent-1-enyl ester], the “Pre-Emergence Activity AVEFA” value in the test with Avena fatua (AVEFA) [5] is 0. For the same compound, the “Pre-Emergence Activity ALOMY” value in test [6] turned out to be 0. Moreover, the “Pre-Emergence Activity ECHCG” value in test [7] is 0. In addition, in the test with Lolium perenne (LOLPE) [8], the “Pre-Emergence Activity LOLPE” value is 90.

For the compound `Cc1cc(C)c(C2C(=O)CC(Cc3ccc(C)o3)C2=O)c(C)c1` (centres unmarked) [Compound T4], the “Post-Emergence Activity AVEFA” value in the test on Avena fatua (AVEFA) [1] was 20. Also, in test [2], the “Post-Emergence Activity ALOMY” value was found to be 40. Moreover, the “Post-Emergence Activity ECHCG” value in test [3] was 30. The “Post-Emergence Activity LOLPE” value with Lolium perenne (LOLPE) [4] came to 50.

For the compound `COC1=C(c2c(C)cc(C)cc2C)C(=O)C(C(O)c2cc(C)c(C)o2)C1` (centres unmarked) [Compound P1], in the test on Avena fatua (AVEFA) [5], the “Pre-Emergence Activity AVEFA” value is 0. For the same compound, in test [6], the “Pre-Emergence Activity ALOMY” value was 0. Besides, the “Pre-Emergence Activity ECHCG” value in test [7] turned out to be 0. In addition, the “Pre-Emergence Activity LOLPE” value in the test with Lolium perenne (LOLPE) [8] is 40.

In the case of `Cc1cc(C)c(C2C(=O)CC(Cc3ccoc3)C2=O)c(C)c1` (centres unmarked) [Compound T2, 4-Furan-3-ylmethyl-2-(2,4,6-trimethyl-phenyl)-cyclopentane-1,3-dione], in the test on Avena fatua (AVEFA) [1], the “Post-Emergence Activity AVEFA” value amounted to 20. Also, in test [2], the “Post-Emergence Activity ALOMY” value is recorded as 60. In addition, in test [3], the “Post-Emergence Activity ECHCG” value is reported as 80. Besides, in the test with Lolium perenne (LOLPE) [4], the “Post-Emergence Activity LOLPE” value came out at 80. In addition, in the test with Avena fatua (AVEFA) [5], the “Pre-Emergence Activity AVEFA” value came out at 20. Besides, the “Pre-Emergence Activity ALOMY” value in test [6] amounted to 30. For the same compound, the “Pre-Emergence Activity ECHCG” value in test [7] came out at 0. The “Pre-Emergence Activity LOLPE” value in the test on Lolium perenne (LOLPE) [8] worked out at 80.

For the compound `Cc1cc(C)c(C2C(=O)C/C(=C\c3ccco3)C2=O)c(C)c1` (centres unmarked) [Compound T8], the “Post-Emergence Activity AVEFA” value with Avena fatua (AVEFA) [1] came to 0. Further, in test [2], the “Post-Emergence Activity ALOMY” value stood at 10. Further, the “Post-Emergence Activity ECHCG” value in test [3] came out at 30. In the test on Lolium perenne (LOLPE) [4], the “Post-Emergence Activity LOLPE” value came out at 30.

(Values after patent US8889595B2, “Herbicides” (Syngenta Participations AG, priority 2008, dated 2014).)
